# In patent US11021467B2, “Phosphatidylinositol 3-kinase inhibitors” (Gilead Sciences, Inc., priority 2014, dated 2021):
# Columns and labels:
# Experiment in all cases: TR-FRET enzymatic activity assay against PI3K isoforms
# Format in all cases: biochemical
# PI3Kβ = PI3Kβ (Homo sapiens (Human), UniProt P42338); conditions: for IC50: PI3Kβ, TR-FRET, 2×Km ATP, 30 minutes at 25° C.
# From the text: (§1) The compounds of formula (I) were characterized for their enzymatic activity against the PI3K isoforms. […] TR-FRET monitored the formation of 3,4,5-inositol triphosphate molecule that competed with fluorescently labeled PIP3 for binding to the GRP-1 pleckstrin homology domain protein.
# PI3Kγ = PI3Kγ (Homo sapiens (Human), UniProt P48736); conditions: 2×Km ATP, 30 minutes at 25° C.
# Sequence of PI3Kγ (P48736 whole entry): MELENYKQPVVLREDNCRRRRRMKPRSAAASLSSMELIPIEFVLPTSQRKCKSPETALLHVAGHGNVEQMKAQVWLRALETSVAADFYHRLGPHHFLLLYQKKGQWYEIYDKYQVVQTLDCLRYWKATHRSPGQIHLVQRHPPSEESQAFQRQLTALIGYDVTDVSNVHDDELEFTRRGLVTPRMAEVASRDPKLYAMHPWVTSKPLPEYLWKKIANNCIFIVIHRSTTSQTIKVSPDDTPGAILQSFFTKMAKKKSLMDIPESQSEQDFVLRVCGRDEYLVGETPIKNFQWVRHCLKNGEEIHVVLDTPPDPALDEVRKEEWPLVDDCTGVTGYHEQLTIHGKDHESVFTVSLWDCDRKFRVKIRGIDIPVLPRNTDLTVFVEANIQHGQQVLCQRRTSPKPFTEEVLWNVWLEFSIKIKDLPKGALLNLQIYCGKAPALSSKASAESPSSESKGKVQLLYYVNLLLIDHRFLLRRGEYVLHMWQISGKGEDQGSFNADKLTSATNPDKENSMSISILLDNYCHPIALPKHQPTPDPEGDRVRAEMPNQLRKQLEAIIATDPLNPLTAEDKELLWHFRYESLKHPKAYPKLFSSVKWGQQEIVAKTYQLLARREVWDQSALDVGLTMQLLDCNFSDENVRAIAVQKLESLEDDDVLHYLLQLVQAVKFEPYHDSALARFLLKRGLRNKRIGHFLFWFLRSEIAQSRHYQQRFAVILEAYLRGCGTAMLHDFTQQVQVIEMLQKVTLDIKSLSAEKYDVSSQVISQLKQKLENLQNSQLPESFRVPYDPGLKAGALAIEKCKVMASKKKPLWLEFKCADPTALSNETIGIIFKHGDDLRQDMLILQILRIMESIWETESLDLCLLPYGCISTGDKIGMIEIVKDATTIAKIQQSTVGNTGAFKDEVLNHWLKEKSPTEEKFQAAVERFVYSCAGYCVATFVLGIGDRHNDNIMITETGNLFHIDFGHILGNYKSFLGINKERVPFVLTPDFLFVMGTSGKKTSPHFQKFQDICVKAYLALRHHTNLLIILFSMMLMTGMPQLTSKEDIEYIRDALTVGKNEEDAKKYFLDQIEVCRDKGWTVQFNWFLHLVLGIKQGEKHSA
# From the text: as §1
# PI3Kδ = PI3Kδ (Homo sapiens (Human), UniProt O00329); conditions: 2×Km ATP, 30 minutes at 25° C.
# Sequence of PI3Kδ (O00329 whole entry): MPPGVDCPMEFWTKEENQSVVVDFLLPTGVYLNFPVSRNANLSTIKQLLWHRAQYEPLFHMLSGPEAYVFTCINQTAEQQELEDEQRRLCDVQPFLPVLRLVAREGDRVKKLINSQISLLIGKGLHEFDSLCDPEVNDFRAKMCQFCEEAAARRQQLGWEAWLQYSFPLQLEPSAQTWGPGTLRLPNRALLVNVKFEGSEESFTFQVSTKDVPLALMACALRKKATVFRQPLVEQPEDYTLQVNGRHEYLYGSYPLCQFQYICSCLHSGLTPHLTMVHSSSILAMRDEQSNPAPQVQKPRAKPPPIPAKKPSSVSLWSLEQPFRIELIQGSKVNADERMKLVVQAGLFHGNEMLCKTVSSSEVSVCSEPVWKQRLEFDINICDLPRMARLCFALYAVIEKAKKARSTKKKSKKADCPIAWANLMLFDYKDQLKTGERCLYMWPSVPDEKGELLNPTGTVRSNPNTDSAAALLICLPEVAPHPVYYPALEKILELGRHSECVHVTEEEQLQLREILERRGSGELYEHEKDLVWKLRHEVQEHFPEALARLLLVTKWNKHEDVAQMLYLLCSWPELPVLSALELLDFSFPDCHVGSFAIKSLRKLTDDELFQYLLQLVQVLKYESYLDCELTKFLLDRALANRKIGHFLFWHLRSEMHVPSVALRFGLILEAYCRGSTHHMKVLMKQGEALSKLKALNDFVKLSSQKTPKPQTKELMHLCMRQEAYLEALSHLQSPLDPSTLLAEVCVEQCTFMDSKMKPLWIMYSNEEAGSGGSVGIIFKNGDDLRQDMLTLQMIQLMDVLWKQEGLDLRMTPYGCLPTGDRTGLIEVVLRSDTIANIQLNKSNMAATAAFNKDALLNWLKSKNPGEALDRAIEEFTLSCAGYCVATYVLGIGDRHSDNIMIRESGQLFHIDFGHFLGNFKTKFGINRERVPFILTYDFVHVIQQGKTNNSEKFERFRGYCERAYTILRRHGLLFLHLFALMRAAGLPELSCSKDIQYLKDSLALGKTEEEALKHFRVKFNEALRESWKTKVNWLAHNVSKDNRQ
# Sequence of PI3Kδ (P27986 whole entry partner): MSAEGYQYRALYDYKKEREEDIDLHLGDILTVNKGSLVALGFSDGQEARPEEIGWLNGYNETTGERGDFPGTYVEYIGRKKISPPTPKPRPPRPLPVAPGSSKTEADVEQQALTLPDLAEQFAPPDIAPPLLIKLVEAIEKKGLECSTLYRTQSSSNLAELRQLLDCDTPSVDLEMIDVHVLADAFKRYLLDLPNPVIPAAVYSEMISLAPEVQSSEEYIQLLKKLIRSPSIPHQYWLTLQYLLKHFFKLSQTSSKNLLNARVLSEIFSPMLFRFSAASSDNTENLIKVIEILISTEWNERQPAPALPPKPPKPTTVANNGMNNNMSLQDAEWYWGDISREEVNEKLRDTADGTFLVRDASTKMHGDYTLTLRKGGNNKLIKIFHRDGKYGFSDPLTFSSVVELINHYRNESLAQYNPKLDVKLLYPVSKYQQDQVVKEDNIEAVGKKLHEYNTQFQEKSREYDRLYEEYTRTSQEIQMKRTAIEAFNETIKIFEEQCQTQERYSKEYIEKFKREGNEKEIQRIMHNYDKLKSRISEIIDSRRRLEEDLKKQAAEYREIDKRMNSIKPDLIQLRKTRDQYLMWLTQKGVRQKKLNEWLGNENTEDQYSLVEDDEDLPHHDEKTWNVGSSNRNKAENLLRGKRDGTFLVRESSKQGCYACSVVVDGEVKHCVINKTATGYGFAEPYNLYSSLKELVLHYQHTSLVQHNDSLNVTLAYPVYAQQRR
# From the text: as §1
# Sequence of PI3Kβ (P42338 whole entry, the tested form may be a part, canonical isoform): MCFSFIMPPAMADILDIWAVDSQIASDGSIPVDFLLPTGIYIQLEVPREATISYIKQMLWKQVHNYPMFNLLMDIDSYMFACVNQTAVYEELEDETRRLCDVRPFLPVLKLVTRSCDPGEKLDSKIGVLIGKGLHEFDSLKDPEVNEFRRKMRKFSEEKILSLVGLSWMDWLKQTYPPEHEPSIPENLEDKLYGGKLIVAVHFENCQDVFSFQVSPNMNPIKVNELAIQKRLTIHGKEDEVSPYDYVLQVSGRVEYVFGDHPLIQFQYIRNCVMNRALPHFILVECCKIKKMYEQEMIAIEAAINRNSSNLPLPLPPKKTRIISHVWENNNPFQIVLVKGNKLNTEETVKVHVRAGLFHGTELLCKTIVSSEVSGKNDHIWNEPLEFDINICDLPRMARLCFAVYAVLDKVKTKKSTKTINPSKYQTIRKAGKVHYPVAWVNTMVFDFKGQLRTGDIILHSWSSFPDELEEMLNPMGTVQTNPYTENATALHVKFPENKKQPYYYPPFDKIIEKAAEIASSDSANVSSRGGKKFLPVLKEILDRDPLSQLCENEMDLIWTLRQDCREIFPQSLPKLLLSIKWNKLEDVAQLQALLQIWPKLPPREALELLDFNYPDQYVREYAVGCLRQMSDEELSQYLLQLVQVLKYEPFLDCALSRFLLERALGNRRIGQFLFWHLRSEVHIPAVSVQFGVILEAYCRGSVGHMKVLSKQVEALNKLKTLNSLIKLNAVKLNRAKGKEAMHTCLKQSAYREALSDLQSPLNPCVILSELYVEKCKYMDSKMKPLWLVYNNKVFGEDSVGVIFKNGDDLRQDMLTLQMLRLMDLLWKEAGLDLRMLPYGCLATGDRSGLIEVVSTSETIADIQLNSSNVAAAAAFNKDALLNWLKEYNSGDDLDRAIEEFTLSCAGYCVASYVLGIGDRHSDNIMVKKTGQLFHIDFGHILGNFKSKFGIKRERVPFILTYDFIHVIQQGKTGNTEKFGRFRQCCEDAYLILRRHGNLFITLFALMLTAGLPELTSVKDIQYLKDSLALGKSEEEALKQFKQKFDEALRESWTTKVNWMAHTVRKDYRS
# Sequence of PI3Kβ (P27986 whole entry partner, the tested form may be a part, canonical isoform): as the sequence (P27986 whole entry partner) above
SMILES,IC50 (PI3Kβ) [nM],IC50 (PI3Kγ) [nM],IC50 (PI3Kδ) [nM],"PI3Kγ/PI3Kβ ratio (PI3Kβ; ratio of IC50 values, selectivity for PI3Kβ over PI3Kγ)"
"NCCCn1c([C@@H](Nc2ncnc3ccc(Cl)nc23)C2CC2)nc2cccc(Cl)c2c1=O [Compound 48, (S)-3-(3-aminopropyl)-5-chloro-2-(((6-chloropyrido[3,2-d]pyrimidin-4-yl)amino)(cyclopropyl)methyl)quinazolin-4(3H)-one]",4,900,4,–
"C[C@H](Nc1ncnn2ccnc12)c1nc2cccc(Cl)c2c(=O)n1N(C)CCN [Compound 11, (S)-3-((2-aminoethyl)(methyl)amino)-5-chloro-2-(1-(imidazo[2,1-f][1,2,4]triazin-4-ylamino)ethyl)quinazolin-4(3H)-one]",93,≥ 10000,37,–
"C[C@H](Nc1ncnc2[nH]cnc12)c1nc2cccc(Cl)c2c(=O)n1CCCN1CCOCC1 [Compound 19, (S)-2-(1-((9H-purin-6-yl)amino)ethyl)-5-chloro-3-(3-morpholinopropyl)quinazolin-4(3H)-one]",1300,≥ 10000,14,–
"N#Cc1c(N)nc(N)nc1N[C@H](c1nc2c(Cl)cc(F)cc2c(=O)n1CCCC(N)=O)C1CC1 [Compound 121, (S)-4-(8-chloro-2-(cyclopropyl((2,6-diamino-5-cyanopyrimidin-4-yl)amino)methyl)-6-fluoro-4-oxoquinazolin-3(4H)-yl)butanamide]",9,760,2,–
"N#Cc1c(N)nc(N)nc1N[C@H](c1nc2cccc(Cl)c2c(=O)n1CCCNC1CCC1)C1CC1 [Compound 54, (S)-2,4-diamino-6-(((5-chloro-3-(3-(cyclobutylamino)propyl)-4-oxo-3,4-dihydroquinazolin-2-yl)(cyclopropyl)methyl)amino)pyrimidine-5-carbonitrile]",5,830,0.4,–
"N#Cc1c(N)nc(N)nc1N[C@H](c1nc2c(Cl)ccc(Cl)c2c(=O)n1[C@H]1C[C@H](O)C1)C1CC1 [Compound 100, 2,4-diamino-6-(((S)-cyclopropyl(5,8-dichloro-3-((trans)-3-hydroxycyclobutyl)-4-oxo-3,4-dihydroquinazolin-2-yl)methyl)amino)pyrimidine-5-carbonitrile]",44,2900,3,–
"N#Cc1c(N)nc(N)nc1N[C@H](c1nc2cccc(Cl)c2c(=O)n1CCCC(N)=O)C1CC1 [Compound 66, (S)-4-(5-chloro-2-(cyclopropyl((2,6-diamino-5-cyanopyrimidin-4-yl)amino)methyl)-4-oxoquinazolin-3(4H)-yl)butanamide]",4,97,1,–
"C[C@H](Nc1ncnc(N)c1C#N)c1nc2cccc(Cl)c2c(=O)n1CC1CCCN1 (stereo partly drawn) [Compound 90, 4-amino-6-(((1S)-1-(5-chloro-4-oxo-3-(pyrrolidin-2-ylmethyl)-3,4-dihydroquinazolin-2-yl)ethyl)amino)pyrimidine-5-carbonitrile]",2800,≥ 10000,37,–
"C[C@H](Nc1ncnc(N)c1C#N)c1nc2cccc(Cl)c2c(=O)n1CCCO [Compound 83, (S)-4-amino-6-((1-(5-chloro-3-(3-hydroxypropyl)-4-oxo-3,4-dihydroquinazolin-2-yl)ethyl)amino)pyrimidine-5-carbonitrile]",180,2900,6,–
"N#CCCn1c([C@@H](Nc2nc(N)nc(N)c2C#N)C2CC2)nc2cccc(Cl)c2c1=O [Compound 112, (S)-2,4-diamino-6-(((5-chloro-3-(2-cyanoethyl)-4-oxo-3,4-dihydroquinazolin-2-yl)(cyclopropyl)methyl)amino)pyrimidine-5-carbonitrile]",8,62,3,–
"C[C@H](Nc1nc(N)nc(N)c1C#N)c1nc2cccc(Cl)c2c(=O)n1N(C)CCN [Compound 15, (S)-2,4-diamino-6-((1-(3-((2-aminoethyl)(methyl)amino)-5-chloro-4-oxo-3,4-dihydroquinazolin-2-yl)ethyl)amino)pyrimidine-5-carbonitrile]",2,1700,3,–
"COCCCn1c([C@H](C)Nc2ncnc(N)c2C#N)nc2cccc(Cl)c2c1=O [Compound 105, (S)-4-amino-6-((1-(5-chloro-3-(3-methoxypropyl)-4-oxo-3,4-dihydroquinazolin-2-yl)ethyl)amino)pyrimidine-5-carbonitrile]",820,8400,9,–
"C[C@H](NC(=O)c1c(N)nn2cccnc12)c1nc2cccc(Cl)c2c(=O)n1CCCN [Compound 32, (S)-2-amino-N-(1-(3-(3-aminopropyl)-5-chloro-4-oxo-3,4-dihydroquinazolin-2-yl)ethyl)pyrazolo[1,5-a]pyrimidine-3-carboxamide]",44,3200,92,–
"N#CCCCCn1c([C@@H](Nc2nc(N)nc(N)c2C#N)C2CC2)nc2cccc(Cl)c2c1=O [Compound 114, (S)-2,4-diamino-6-(((5-chloro-3-(4-cyanobutyl)-4-oxo-3,4-dihydroquinazolin-2-yl)(cyclopropyl)methyl)amino)pyrimidine-5-carbonitrile]",12,130,0.8,–
"C[C@H](NC(=O)c1nccnc1N)c1nc2cccc(Cl)c2c(=O)n1CCCN [Compound 18, (S)-3-amino-N-(1-(3-(3-aminopropyl)-5-chloro-4-oxo-3,4-dihydroquinazolin-2-yl)ethyl)pyrazine-2-carboxamide]",360,≥ 10000,370,–
"CC(=O)NCCCn1c([C@@H](Nc2nc(N)nc(N)c2C#N)C2CC2)nc2cccc(Cl)c2c1=O [Compound 53, (S)—N-(3-(5-chloro-2-(cyclopropyl((2,6-diamino-5-cyanopyrimidin-4-yl)amino)methyl)-4-oxoquinazolin-3(4H)-yl)propyl)acetamide]",9,190,2,–
"Cc1ncnc(N[C@@H](C)c2nc3cccc(Cl)c3c(=O)n2CCCN)c1C#N [Compound 23, (S)-4-((1-(3-(3-aminopropyl)-5-chloro-4-oxo-3,4-dihydroquinazolin-2-yl)ethyl)amino)-6-methylpyrimidine-5-carbonitrile]",90,≥ 10000,25,–
"C[C@H](Nc1nc(N)nc(N)c1C#N)c1nc2cccc(Cl)c2c(=O)n1CCCNCc1ccccc1 [Compound 8, (S)-2,4-diamino-6-((1-(3-(3-(benzylamino)propyl)-5-chloro-4-oxo-3,4-dihydroquinazolin-2-yl)ethyl)amino)pyrimidine-5-carbonitrile]",68,1700,5,–
"N#Cc1c(N)nc(N)nc1N[C@H](c1nc2cccc(Cl)c2c(=O)n1CCCN)C1CC1 [Compound 47, (S)-2,4-diamino-6-(((3-(3-aminopropyl)-5-chloro-4-oxo-3,4-dihydroquinazolin-2-yl)(cyclopropyl)methyl)amino)pyrimidine-5-carbonitrile]",5,1100,3,230
"CC(=O)NCCCn1c([C@H](C)Nc2ncnc(N)c2C#N)nc2cccc(Cl)c2c1=O [Compound 51, (S)—N-(3-(2-(1-((6-amino-5-cyanopyrimidin-4-yl)amino)ethyl)-5-chloro-4-oxoquinazolin-3(4H)-yl)propyl)acetamide]",110,5500,8,–
"N#CCCCn1c([C@@H](Nc2nc(N)nc(N)c2C#N)C2CC2)nc2cccc(Cl)c2c1=O [Compound 113, (S)-2,4-diamino-6-(((5-chloro-3-(3-cyanopropyl)-4-oxo-3,4-dihydroquinazolin-2-yl)(cyclopropyl)methyl)amino)pyrimidine-5-carbonitrile]",17,59,1,–
"C[C@H](Nc1ncnc(N)c1C#N)c1nc2cccc(Cl)c2c(=O)n1N(C)CCN [Compound 17, (S)-4-amino-6-((1-(3-((2-aminoethyl)(methyl)amino)-5-chloro-4-oxo-3,4-dihydroquinazolin-2-yl)ethyl)amino)pyrimidine-5-carbonitrile]",69,≥ 10000,11,–
"NCCCn1c([C@@H](Nc2ncnn3ccnc23)C2CC2)nc2cccc(Cl)c2c1=O [Compound 35, (S)-3-(3-aminopropyl)-5-chloro-2-(cyclopropyl(imidazo[2,1-][1,2,4]triazin-4-ylamino)methyl)quinazolin-4(3H)-one]",110,≥ 10000,21,–
"N#Cc1c(N)nc(N)nc1N[C@H](c1nc2c(Cl)cc(F)cc2c(=O)n1[C@H]1C[C@H](O)C1)C1CC1 [Compound 97, 2,4-diamino-6-(((S)-(8-chloro-6-fluoro-3-((trans)-3-hydroxycyclobutyl)-4-oxo-3,4-dihydroquinazolin-2-yl)(cyclopropyl)methyl)amino)pyrimidine-5-carbonitrile]",58,2800,8,–
"C[C@H](Nc1ncnc(N)c1Cl)c1nc2cccc(Cl)c2c(=O)n1CCCN [Compound 30, (S)-2-(1-((6-amino-5-chloropyrimidin-4-yl)amino)ethyl)-3-(3-aminopropyl)-5-chloroquinazolin-4(3H)-one]",110,≥ 10000,11,–
"C[C@H](Nc1nc(N)nc(N)c1C#N)c1nc2c(Cl)ccc(Cl)c2c(=O)n1[C@H]1C[C@H](O)C1 [Compound 101, 2,4-diamino-6-(((S)-1-(5,8-dichloro-3-((trans)-3-hydroxycyclobutyl)-4-oxo-3,4-dihydroquinazolin-2-yl)ethyl)amino)pyrimidine-5-carbonitrile]",140,3200,12,–
